Data from patent US5182113A, “Factor Xa inibitor from leech and pharmaceutical compositions containing same” (Bio-Technology General Corp., priority 1988, dated 1993).
Entries after “also recorded” stand apart in the source; their conditions may differ.

Experiments:
F.Xa = conditions: substrate affinity; cited from earlier work
bovine F.Xa = test: Affinity binding to bovine F.Xa immobilized on Affi-Gel 10; conditions: leech saliva passed through column, pH 7.9
Method: The inhibitor/modulator of the present invention may be isolated from the saliva by adsorption on an Affi-Gel column on which bovine F.Xa is fixed and subsequent elution with acetic acid. Hirudin was not adsorbed on said gel. Affi-Gel 10 is used, which is a derivatized ross-linked agarose containing a 10-atom spacer arm esterified to N-hydroxysuccinimide. The capacity of this gel is 10 micromoles/ml.
1. Coupling. To 1ml washed Affi-Gel 10 in a mini-column were added 2ml of a dialyzed BXa solution (40 nmoles) in 0.05 M Hepes/0.1 M NaCl buffer pH 7.5. The column was shaken for 2 h at room temp. The supernatant was then run off the column, which was not allowed to dry. Ninety four percent of the BXa load was bound to the gel.
3. Affinity binding of XaM. Leech saliva (40 ml, 305 pmoles XaM) was adjusted to pH 7.9 by adding 1% v/v 1M Tris pH 8 and was passed through the column. Ninety two percent of the XaM was bound to the gel. Hirudin was not bound.

bovine Factor Xa [1] = test: Inhibition of bovine Xa activity on chromogenic substrate; format: biochemical; conditions: result in words
Method: (§1) Regarding the methods, synthetic substrates having a chromogenic end group such as pNA (para- nitroanilide) are preferably used, enabling easy monitoring of the progress of the coagulation by spectrophotometer methods. […] The reactions were monitored at 405 nm in a spectrophotometer connected to a computer and the kinetic parameter were calculated from the appropriate extinction coefficients by a Jackson-Labanowski linear regression program. The measurements were carried out in disposable polystyrene cuvettes at pH of 7.8 and a temperature of 25° C.

bovine thrombin = test: Inhibition of bovine thrombin activity on chromogenic substrate; format: biochemical; conditions: result in words
Method: as §1

bovine Factor Xa [2] = conditions: literature (Tuszynski, Gasic and Gasic 1987); cited from earlier work

## N=C(N)NCCC[C@H](NC(=O)[C@@H]1CCCCN1C(=O)[C@H](N)Cc1ccccc1)C(=O)Nc1ccc([N+](=O)[O-])cc1 [S2238, D-Phe-Pipecolyl-L-Arg-pNa]
F.Xa
  Km: 46.9 µM

## hirudin
Bovine F.Xa
  adsorption on Affi-Gel with fixed bovine F.Xa: not adsorbed; also recorded: not bound
Bovine Factor Xa [1]
  inhibition of bovine F.Xa: does not inhibit bovine F.Xa
Bovine thrombin
  inhibition of thrombin: inhibits thrombin

B1: antistasin (protein, UniProt P15358 18-136, looked up)
Antistasin: QGPFGPGCEEAGCPEGSACNIITDRCTCSGVRCRMHCPHGFQRSRYGCEFCKCRLEPMKATCDISECPEGMMCSRLTNKCDCKIDINCRKTCPNGLKRDKLGCEYCECRPKRKLIPRLS
Bovine Factor Xa [2]
  remaining BXa activity at which the dose-response curve flattens out: about 50%
